Assay results from US5306824A, “Biotinylated isocoumarins” (Georgia Tech Research Corporation, priority 1992, dated 1994).

How the values were obtained:
[1] = test system: Rat Granule Chymase; test: Reactivation of inhibited rat granule chymase with NH2OH; format: biochemical; details: 0.4 M NH2OH, immediately after addition
Description: (§1) ^a Inhibition was performed at 0.1 M Hepes, 0.5 M NaCl, pH 7.5 buffer
(§2) 10% Me2 SO and 25° C. Reactivation was carried out in the
presence of 0.4 M of NH2 OH, and occurred immediately after the […]

[2] = biological target: Rat Granule Tryptase; test: Inhibition of rat granule tryptase; format: biochemical; details: [I] 0.078 mM or 0.2 mM as per table line; pH 7.5, 10% Me2SO, 25° C.
Description: (§3) Inactivation rates of serine proteases by substituted isocoumarins were measured by the incubation method. An aliquot of inhibitor (25 or 50 μl) in Me2 SO was added to a buffered enzyme solution (0.01-2.3 μM) to initiate the inactivation. Aliquots (50-100 μl) were withdrawn at various intervals and the residual enzymatic activity was measured. Me2 SO concentration in the reaction mixture was 8-12% (v/v). 0.1M Hepes, 0.5M NaCl, pH 7.5 buffer was utilized for the assays of chymotrypsin, cathepsin G (cat G), porcine pancreatic elastase (PPE), human leukocyte elastase (HLE) and rat granule serine proteases. 0.1M Hepes, 0.01M CaCl2, pH 7.5 buffer was utilized for the assays of trypsin and human recombinant (HR) granzyme A. The inhibitor concentrations are shown in the Tables I and II. Peptide nitroanilides with appropriate sequence were used as substrates for various serine proteases. All peptide 4-nitroanilide hydrolysis was measured at 410 nm (ε410 =8800M^-1 cm^-1; Erlanger et al., Arch. Biochem. Biophys. 95, pp 271-278 (1961), incorporated herein by reference). Peptide thioester hydrolysis rates were measured with assay mixtures containing 4,4'-dithiodipyridine (ε324 =19800M^-1 cm^-1; Grasetti & Murray, Arch. Biochem. Biophys. 119, pp. 41-49 (1967), incorporated herein by reference). […]
(§4) ^a Inhibition was measured in 0.1 M Hepes, 0.5 M NaCl, pH 7.5 buffer, […]

[3] = biological target: T1, chymotrypsin (Bos taurus, UniProt P00766); test: Effect of streptavidin and avidin on reactivation of inhibited chymotrypsin; format: biochemical, bovine; details: monitored for two days
Description: (§5) ^a Percentage of regained enzymatic activity was measured in 0.1 M
(§6) Hepes, 0.5 M NaCl, pH 7.5 buffer, 8% Me2 SO and at 25° C.
(§7) Excess inhibitor was removed from enzymeinhibitor mixture by
(§8) centrifugation twice with Amicon microconcentrator10. Then 3-4 units of
(§9) avidin or strepavidin was added and enzymatic activity was monitored for […]

[4] = test system: Rat Granule Chymase; test: Inhibition of rat granule chymase; format: biochemical; details: [I] 0.2 mM; inhibition not time dependent; pH 7.5, 10% Me2SO, 25° C.
Description: as §3, §4

[5] = biological target: T2, human leukocyte elastase (HLE) (Homo sapiens, UniProt P08246); test: Inactivation of human leukocyte elastase by biotin-isocoumarins (incubation method); format: biochemical; details: inhibitor 1.6-210 μM; pH 7.5, 25° C.; read-out: kobs/[I] HLE
T2 sequence (P08246 30-267): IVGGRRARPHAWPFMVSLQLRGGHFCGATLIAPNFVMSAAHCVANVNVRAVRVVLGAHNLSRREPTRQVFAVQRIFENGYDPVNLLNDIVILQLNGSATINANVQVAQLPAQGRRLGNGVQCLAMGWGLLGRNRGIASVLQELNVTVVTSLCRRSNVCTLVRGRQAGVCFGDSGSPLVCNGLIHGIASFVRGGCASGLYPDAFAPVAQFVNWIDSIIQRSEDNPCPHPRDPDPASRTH
Description: (§10) Inactivation rates of serine proteases by substituted isocoumarins were measured by the incubation method. An aliquot of inhibitor (25 or 50 μl) in Me2 SO was added to a buffered enzyme solution (0.01-2.3 μM) to initiate the inactivation. Aliquots (50-100 μl) were withdrawn at various intervals and the residual enzymatic activity was measured. Me2 SO concentration in the reaction mixture was 8-12% (v/v). 0.1M Hepes, 0.5M NaCl, pH 7.5 buffer was utilized for the assays of chymotrypsin, cathepsin G (cat G), porcine pancreatic elastase (PPE), human leukocyte elastase (HLE) and rat granule serine proteases. 0.1M Hepes, 0.01M CaCl2, pH 7.5 buffer was utilized for the assays of trypsin and human recombinant (HR) granzyme A. The inhibitor concentrations are shown in the Tables I and II. Peptide nitroanilides with appropriate sequence were used as substrates for various serine proteases. All peptide 4-nitroanilide hydrolysis was measured at 410 nm (ε410 =8800M^-1 cm^-1; Erlanger et al., Arch. Biochem. Biophys. 95, pp 271-278 (1961), incorporated herein by reference). Peptide thioester hydrolysis rates were measured with assay mixtures containing 4,4'-dithiodipyridine (ε324 =19800M^-1 cm^-1; Grasetti & Murray, Arch. Biochem. Biophys. 119, pp. 41-49 (1967), incorporated herein by reference). First order inactivation rate constant (kobs) were obtained from plots of ln (vt /vo) vs time, and the correlation coefficients were greater than 0.98.
(§11) ^a Inhibition was measured in 0.1 M Hepes, 0.5 M NaCl (or 0.01 M
(§12) CaCl2), pH 7.5 buffer, 5-10% Me2 SO and at 25° C.
(§13) G. MeOSuc-Ala-Ala-Pro-Val-NA (0.24-0.47 mM) and SucAla-Ala-Ala-NA
(§14) (0.29-0.48 mM) were used as the substrate for HLE and PPE respectively.
^d Inhibitor concentrations were 1.6-210 μM.

[6] = biological target: T1, chymotrypsin; test: Inactivation of chymotrypsin by biotin-isocoumarins (incubation method); format: biochemical, bovine; details: 0.1 M Hepes, 0.5 M NaCl, pH 7.5, 5-10% Me2SO, 25° C., two values given for some compounds; for kinact/KI: pH 7.5, inhibitor 20-400 μM, read-out: kobs/[I] Chymotrypsin
Description: as §10, §11, §12
(§15) SucVal-Pro-NA (0.48 mM) was used as the substrate for chymotrypsin and ca
^b Inhibitor concentrations were 20-400 μM.

[7] = biological target: T3, trypsin (Bos taurus, UniProt P00760); test: Inactivation of trypsin by biotin-isocoumarins (incubation method); format: biochemical; details: inhibitor 41-42 μM; 0.1 M Hepes, 0.01 M CaCl2, pH 7.5, 25° C.; read-out: kobs/[I] Trypsin
T3 sequence (P00760 24-246): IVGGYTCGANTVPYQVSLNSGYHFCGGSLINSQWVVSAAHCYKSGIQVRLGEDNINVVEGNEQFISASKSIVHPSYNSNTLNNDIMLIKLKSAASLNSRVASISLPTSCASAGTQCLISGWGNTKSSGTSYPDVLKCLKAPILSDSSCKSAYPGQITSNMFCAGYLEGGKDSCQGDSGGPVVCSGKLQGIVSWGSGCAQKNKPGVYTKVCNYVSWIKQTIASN
Description: as §10, §11, §12
(§16) ZGlu-Phe-Arg-NA (0.032 mM) was a substrate for trypsin. ZArg-SBzl (0.120
^f Inhibitor concentrations were 41-42 μM.

[8] = biological target: T1, chymotrypsin; test: Reactivation of inhibited chymotrypsin in buffer and with NH2OH; format: biochemical, bovine
Description: as §1, §2
(§17) presence of 0.4 M of NH2 OH, and occurred immediately after the
(§18) ^b Enzyme activity was measured after removal of excess inhibitor by
(§19) centrifugation at 0° C. with centricon10 microconcentrator and
(§20) staying at 25° C. for two days.

[9] = biological target: T4, PPE (Sus scrofa, UniProt P00772); test: Reactivation of inhibited PPE in buffer and with NH2OH; format: biochemical, porcine; details: for % of Enzyme Activity Reactivated, PPE +NH2OH: 0.4 M NH2OH, immediately after addition; for % of Enzyme Activity Reactivated, PPE in buffer: after removal of excess inhibitor, 25° C. for two days, 2880 min
Description: as §1, §2, §17, §18, §19, §20

[10] = biological target: T4, PPE; test: Effect of streptavidin and avidin on reactivation of inhibited PPE; format: biochemical, porcine; details: monitored for two days
Description: as §5, §6, §7, §8, §9

[11] = biological target: T5, cathepsin G (cat G) (Homo sapiens, UniProt P08311); test: Inactivation of cathepsin G by biotin-isocoumarins (incubation method); format: biochemical; details: inhibitor 75-400 μM; pH 7.5, 25° C.; NI = no inhibition after 10 min of incubation; read-out: kobs/[I] Cat. G
T5 sequence (P08311 21-255): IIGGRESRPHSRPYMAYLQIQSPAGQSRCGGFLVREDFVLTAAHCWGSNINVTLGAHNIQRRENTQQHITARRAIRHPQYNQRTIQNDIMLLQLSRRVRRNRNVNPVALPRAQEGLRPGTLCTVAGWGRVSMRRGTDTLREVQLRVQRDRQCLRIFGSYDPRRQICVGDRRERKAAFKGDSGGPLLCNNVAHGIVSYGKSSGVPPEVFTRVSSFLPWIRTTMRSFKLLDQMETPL
Description: as §10, §11, §12, §15, §13
^c Inhibitor concentrations were 75-400 μM.
(§21) ^h No inhibition after 10 min of incubation of inhibitor and enzyme.
(§22) ^i Percentage of inhibition after 10 min of incubation of inhibitor

[12] = biological target: T3, trypsin; test: Reactivation of inhibited trypsin in buffer; format: biochemical; details: after removal of excess inhibitor, 25° C. for two days
Description: as §1, §2, §18, §19, §20

[13] = biological target: porcine pancreatic elastase (PPE) (Sus scrofa, UniProt P00772); test: Inactivation of porcine pancreatic elastase by biotin-isocoumarins (incubation method); format: biochemical; details: inhibitor 38-78 μM; pH 7.5, 25° C.; NI = no inhibition after 10 min of incubation; read-out: kobs/[I] PPE
Description: as §10, §11, §12, §13, §14
^e Inhibitor concentrations were 38-78 μM.
as §21

[14] = biological target: T6, human recombinant (HR) granzyme A (Homo sapiens, UniProt P12544); test: Inactivation of human recombinant granzyme A by biotin-isocoumarins (incubation method); format: biochemical; details: inhibitor 160-210 μM, pH 7.5, 25° C.
T6 sequence (P12544 29-262): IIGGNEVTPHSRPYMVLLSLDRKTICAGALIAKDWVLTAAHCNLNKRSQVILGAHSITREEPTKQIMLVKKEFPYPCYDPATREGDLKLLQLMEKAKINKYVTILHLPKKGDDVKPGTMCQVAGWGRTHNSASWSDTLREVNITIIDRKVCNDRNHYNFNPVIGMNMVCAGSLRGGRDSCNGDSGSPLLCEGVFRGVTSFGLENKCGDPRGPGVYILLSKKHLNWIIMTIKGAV
Description: as §10, §11, §12, §16
mM) was a substrate for human recombinant (HR) granzyme A.
^g Inhibitor concentrations were 160-210 μM.
as §21, §22

[15] = 3-4 units streptavidin, 2880 min

T4 sequence (P00772 27-266): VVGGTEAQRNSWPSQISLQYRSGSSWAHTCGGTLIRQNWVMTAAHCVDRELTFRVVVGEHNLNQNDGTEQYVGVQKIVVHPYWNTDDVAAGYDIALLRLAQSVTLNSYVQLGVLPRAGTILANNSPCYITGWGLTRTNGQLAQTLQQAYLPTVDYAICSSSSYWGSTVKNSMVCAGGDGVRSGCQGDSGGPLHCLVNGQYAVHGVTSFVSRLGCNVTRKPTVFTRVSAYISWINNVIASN
Chain of porcine pancreatic elastase (PPE) (P00772 27-266): as above

SMILES | % of Enzyme Activity Reactivated, Rat granule chymase +NH2OH [1] | Rat Granule Tryptase kobs/[I] [2] | % of Regained Enzyme Activity, Chymotrypsin, +Streptavidin [3, 15] | % of Regained Enzyme Activity, Chymotrypsin, Buffer ([3]; pH 7.5, 8% Me2SO, 25° C.) | Rat Granule Chymase % of inhibition [4] | kinact/KI [5] | kobs/[I] Chymotrypsin ([6]; inhibitor 20-400 μM) | kinact/KI [6] | kinact/KI [7] | % of Enzyme Activity Reactivated, Chymotrypsin +NH2OH ([8]; 0.4 M NH2OH, immediately after addition) | % of Enzyme Activity Reactivated, Chymotrypsin in buffer ([8]; after removal of excess inhibitor, 25° C. for two days) | % of Enzyme Activity Reactivated, PPE +NH2OH [9] | % of Enzyme Activity Reactivated, PPE in buffer [9] | % of Regained Enzyme Activity, PPE, +Avidin ([10]; 3-4 units avidin, 2880 min) | % of Regained Enzyme Activity, PPE, +Streptavidin [10, 15] | % of Regained Enzyme Activity, PPE, Buffer ([10]; pH 7.5, 8% Me2SO, 25° C.) | kinact/KI [11] | % of Enzyme Activity Reactivated, Trypsin in buffer [12] | kinact/KI [13] | Percentage of inhibition of HR Granzyme A after 10 min of incubation of inhibitor and enzyme [14]
O=C(CCCC[C@@H]1SC[C@@H]2NC(=O)N[C@@H]21)Nc1ccc2c(Cl)c(OCCc3ccccc3)oc(=O)c2c1 [Compound 1, 7-biotinylamino-4-chloro-3-(2-phenylethoxy)isocoumarin] | 100% | 2 to 3 M⁻¹ s⁻¹ | 27% | 10% | 10-20% | 740 M⁻¹ s⁻¹ | 165 M⁻¹ s⁻¹ | 330 M⁻¹ s⁻¹ | 1.1 M⁻¹ s⁻¹ | 100% | 15% |  |  |  |  |  |  |  |  | 
CCCOc1oc(=O)c2cc(NC(=O)CCCCCNC(=O)CCCC[C@@H]3SC[C@@H]4NC(=O)N[C@@H]43)ccc2c1Cl [Compound 4, 7-(6-biotinylaminocaproyl)amino-4-chloro-3-propoxyisocoumarin] |  |  |  |  |  | 76700 M⁻¹ s⁻¹ |  | 260 M⁻¹ s⁻¹ | 10.6 M⁻¹ s⁻¹ |  |  | 90% | 37% | 32% | 43% | 37% | 3.3 M⁻¹ s⁻¹ | 33% | 350 M⁻¹ s⁻¹ | 
CCOc1oc(=O)c2cc(NC(=O)CCCCCNC(=O)CCCC[C@@H]3SC[C@@H]4NC(=O)N[C@@H]43)ccc2c1Cl [Compound 5, 7-(6-biotinylaminocaproyl)amino-4-chloro-3-ethoxyisocoumarin] |  |  |  |  |  | 96000 M⁻¹ s⁻¹ |  | 260 M⁻¹ s⁻¹ | 16.6 M⁻¹ s⁻¹ |  |  | 93% | 66% |  |  |  | 59 M⁻¹ s⁻¹ | 92% | 520 M⁻¹ s⁻¹ | 26%
